From PubChem BioAssay AID1845205 (Molecular Pharmacology Branch, DTP, NCI, 2023)
Where “and” joins values, the source holds several entries; their conditions need not be identical. Equal values may be shown once.

Test system: MPNST multicellular tumor spheroids, viability % test/control
Assay: Anticancer human tumor MPNST cell line growth inhibition;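 note: spheroids exposed to agents for seven days after three days of growth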;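 for viability, T/C: luminescence signal used as surrogate for viable cell amount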
Conditions: for viability, T/C: stronger effect = lower value
Method in brief: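 Single agents and combinations were tested on spheroids built from tumor cells plus HUVEC and hMSC, at half-log dilutions starting at or near clinical Cmax, else 10 microM; final DMSO 0.25% (v/v).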

[1] = curve of first compound, second compound 0.003 µM

CC(C)n1c(=O)n(C)c2cnc3cc(F)c(-c4ccc(OCCCN5CCCCC5)nc4)cc3c21 + Cn1nnc2c(C(N)=O)ncn2c1=O
IC50 (curve of first compound, second compound 1 µM): > 10 µM | IC50 (curve of first compound, second compound 3.16 µM): > 10 µM | IC50 (curve of first compound, second compound 10 µM): > 10 µM | IC50 (curve of first compound, second compound 31.6 µM): > 10 µM | IC50 (curve of first compound, second compound 100 µM): > 10 µM | viability, T/C (second compound 1 µM, first compound 0.0316 µM): 87.4% | viability, T/C (second compound 1 µM, first compound 0.1 µM): 83.7% | viability, T/C (second compound 1 µM, first compound 0.316 µM): 82.6% | viability, T/C (second compound 1 µM, first compound 1 µM): 77.9% | viability, T/C (second compound 1 µM, first compound 3.16 µM): 79.4% | viability, T/C (second compound 1 µM, first compound 10 µM): 61.9% | viability, T/C (second compound 3.16 µM, first compound 0.0316 µM): 84.6% | viability, T/C (second compound 3.16 µM, first compound 0.1 µM): 82.9% | viability, T/C (second compound 3.16 µM, first compound 0.316 µM): 92.5% | viability, T/C (second compound 3.16 µM, first compound 1 µM): 99% | viability, T/C (second compound 3.16 µM, first compound 3.16 µM): 84.9% | viability, T/C (second compound 3.16 µM, first compound 10 µM): 65.2% | viability, T/C (second compound 10 µM, first compound 0.0316 µM): 76.6% | viability, T/C (second compound 10 µM, first compound 0.1 µM): 92.4% | viability, T/C (second compound 10 µM, first compound 0.316 µM): 82.4% | viability, T/C (second compound 10 µM, first compound 1 µM): 74.8% | viability, T/C (second compound 10 µM, first compound 3.16 µM): 77.7% | viability, T/C (second compound 10 µM, first compound 10 µM): 72.1% | viability, T/C (second compound 31.6 µM, first compound 0.0316 µM): 88.2% | viability, T/C (second compound 31.6 µM, first compound 0.1 µM): 89% | viability, T/C (second compound 31.6 µM, first compound 0.316 µM): 68.6% | viability, T/C (second compound 31.6 µM, first compound 1 µM): 81.8% | viability, T/C (second compound 31.6 µM, first compound 3.16 µM): 83.7% | viability, T/C (second compound 31.6 µM, first compound 10 µM): 68.8% | viability, T/C (second compound 100 µM, first compound 0.0316 µM): 76.8% | viability, T/C (second compound 100 µM, first compound 0.1 µM): 71.8% | viability, T/C (second compound 100 µM, first compound 0.316 µM): 74.2% | viability, T/C (second compound 100 µM, first compound 1 µM): 71.2% | viability, T/C (second compound 100 µM, first compound 3.16 µM): 91% | viability, T/C (second compound 100 µM, first compound 10 µM): 67.2%

CC1COCCN1c1cc(-c2ccnn2C)c2ccnc(-c3ccn[nH]3)c2n1 (configuration not stated)
viability, T/C (compound 0.0316 µM): 54.6% and 70.5% and 65.8% | viability, T/C (compound 0.1 µM): 47.8% and 60% and 55.1% | viability, T/C (compound 0.316 µM): 37.7% and 46.4% and 41.8% | viability, T/C (compound 1 µM): 39.5% and 46.2% and 33.2% | viability, T/C (compound 3.16 µM): 28.1% and 34.2% and 28.3% | viability, T/C (compound 10 µM): 22.3% and 30.9% and 25% | IC50 (curve of compound): 0.0659 µM and 0.315 µM and 0.154 µM

O=C(c1cc(Cc2n[nH]c(=O)c3ccccc23)ccc1F)N1CCN(C(=O)C2CC2)CC1 + CC[C@@]1(O)C(=O)OCc2c1cc1n(c2=O)Cc2cc3c(CN(C)C)c(O)ccc3nc2-1
IC50 [1]: > 30 µM | IC50 (curve of first compound, second compound 0.00949 µM): > 30 µM | IC50 (curve of first compound, second compound 0.03 µM): > 30 µM | IC50 (curve of first compound, second compound 0.0949 µM): > 30 µM | IC50 (curve of first compound, second compound 0.3 µM): < 0.0949 µM | viability, T/C (second compound 0.003 µM, first compound 0.0949 µM): 87.4% | viability, T/C (second compound 0.003 µM, first compound 0.3 µM): 78% | viability, T/C (second compound 0.003 µM, first compound 0.949 µM): 72.9% | viability, T/C (second compound 0.003 µM, first compound 3 µM): 68% | viability, T/C (second compound 0.003 µM, first compound 9.49 µM): 69.5% | viability, T/C (second compound 0.003 µM, first compound 30 µM): 58.2% | viability, T/C (second compound 0.00949 µM, first compound 0.0949 µM): 81.5% | viability, T/C (second compound 0.00949 µM, first compound 0.3 µM): 73.7% | viability, T/C (second compound 0.00949 µM, first compound 0.949 µM): 62.2% | viability, T/C (second compound 0.00949 µM, first compound 3 µM): 59.3% | viability, T/C (second compound 0.00949 µM, first compound 9.49 µM): 59.9% | viability, T/C (second compound 0.00949 µM, first compound 30 µM): 59% | viability, T/C (second compound 0.03 µM, first compound 0.0949 µM): 53.5% | viability, T/C (second compound 0.03 µM, first compound 0.3 µM): 59.2% | viability, T/C (second compound 0.03 µM, first compound 0.949 µM): 57% | viability, T/C (second compound 0.03 µM, first compound 3 µM): 58.4% | viability, T/C (second compound 0.03 µM, first compound 9.49 µM): 60.9% | viability, T/C (second compound 0.03 µM, first compound 30 µM): 55.3% | viability, T/C (second compound 0.0949 µM, first compound 0.0949 µM): 57.5% | viability, T/C (second compound 0.0949 µM, first compound 0.3 µM): 53.1% | viability, T/C (second compound 0.0949 µM, first compound 0.949 µM): 58.5% | viability, T/C (second compound 0.0949 µM, first compound 3 µM): 54.9% | viability, T/C (second compound 0.0949 µM, first compound 9.49 µM): 54.6% | viability, T/C (second compound 0.0949 µM, first compound 30 µM): 55% | viability, T/C (second compound 0.3 µM, first compound 0.0949 µM): 49.3% | viability, T/C (second compound 0.3 µM, first compound 0.3 µM): 50.7% | viability, T/C (second compound 0.3 µM, first compound 0.949 µM): 50.5% | viability, T/C (second compound 0.3 µM, first compound 3 µM): 46.3% | viability, T/C (second compound 0.3 µM, first compound 9.49 µM): 47.8% | viability, T/C (second compound 0.3 µM, first compound 30 µM): 38.6%

[2H]c1nc(C)nc([2H])c1-c1cc(NC[C@@H](C)c2cccc3c(C(=O)NC)ccnc23)ncn1 + COc1cc2c(cc1O)CCNC21CSC2c3c(OC(C)=O)c(C)c4c(c3C(COC1=O)N1C(O)C3Cc5cc(C)c(OC)c(O)c5C(C21)N3C)OCO4
IC50 (curve of first compound, second compound 30 pM): > 10 µM | IC50 (curve of first compound, second compound 94.9 pM): > 10 µM | IC50 (curve of first compound, second compound 0.0003 µM): > 10 µM | IC50 (curve of first compound, second compound 0.000949 µM): < 0.0316 µM | IC50 [1]: < 0.0316 µM | viability, T/C (second compound 30 pM, first compound 0.0316 µM): 83.5% | viability, T/C (second compound 30 pM, first compound 0.1 µM): 71.4% | viability, T/C (second compound 30 pM, first compound 0.316 µM): 73.3% | viability, T/C (second compound 30 pM, first compound 1 µM): 97.6% | viability, T/C (second compound 30 pM, first compound 3.16 µM): 72.7% | viability, T/C (second compound 30 pM, first compound 10 µM): 88.1% | viability, T/C (second compound 94.9 pM, first compound 0.0316 µM): 94.4% | viability, T/C (second compound 94.9 pM, first compound 0.1 µM): 83% | viability, T/C (second compound 94.9 pM, first compound 0.316 µM): 81.6% | viability, T/C (second compound 94.9 pM, first compound 1 µM): 103% | viability, T/C (second compound 94.9 pM, first compound 3.16 µM): 99.9% | viability, T/C (second compound 94.9 pM, first compound 10 µM): 78.3% | viability, T/C (second compound 0.0003 µM, first compound 0.0316 µM): 78% | viability, T/C (second compound 0.0003 µM, first compound 0.1 µM): 75.8% | viability, T/C (second compound 0.0003 µM, first compound 0.316 µM): 72.5% | viability, T/C (second compound 0.0003 µM, first compound 1 µM): 95.7% | viability, T/C (second compound 0.0003 µM, first compound 3.16 µM): 75.8% | viability, T/C (second compound 0.0003 µM, first compound 10 µM): 87% | viability, T/C (second compound 0.000949 µM, first compound 0.0316 µM): 48.4% | viability, T/C (second compound 0.000949 µM, first compound 0.1 µM): 40.6% | viability, T/C (second compound 0.000949 µM, first compound 0.316 µM): 42.7% | viability, T/C (second compound 0.000949 µM, first compound 1 µM): 43.1% | viability, T/C (second compound 0.000949 µM, first compound 3.16 µM): 42.3% | viability, T/C (second compound 0.000949 µM, first compound 10 µM): 42.9% | viability, T/C (second compound 0.003 µM, first compound 0.0316 µM): 9.53% | viability, T/C (second compound 0.003 µM, first compound 0.1 µM): 12.7% | viability, T/C (second compound 0.003 µM, first compound 0.316 µM): 8.26% | viability, T/C (second compound 0.003 µM, first compound 1 µM): 12.5% | viability, T/C (second compound 0.003 µM, first compound 3.16 µM): 9.06% | viability, T/C (second compound 0.003 µM, first compound 10 µM): 8.35%
